{"source": "patent US12578343B2", "about": "“Selective ACKR3 modulators and uses thereof” (Luxembourg Institute of Health (LIH), priority 2019, dated 2026)", "key": {"MOR": {"target": "T1, MOR (Homo sapiens, UniProt P35372)", "T1 construct": "expressed in transfected cells; host or cells: U87 cells, transient co-transfection of pNBe vectors", "T1 sequence (P35372 whole entry, the tested form may be a part)": "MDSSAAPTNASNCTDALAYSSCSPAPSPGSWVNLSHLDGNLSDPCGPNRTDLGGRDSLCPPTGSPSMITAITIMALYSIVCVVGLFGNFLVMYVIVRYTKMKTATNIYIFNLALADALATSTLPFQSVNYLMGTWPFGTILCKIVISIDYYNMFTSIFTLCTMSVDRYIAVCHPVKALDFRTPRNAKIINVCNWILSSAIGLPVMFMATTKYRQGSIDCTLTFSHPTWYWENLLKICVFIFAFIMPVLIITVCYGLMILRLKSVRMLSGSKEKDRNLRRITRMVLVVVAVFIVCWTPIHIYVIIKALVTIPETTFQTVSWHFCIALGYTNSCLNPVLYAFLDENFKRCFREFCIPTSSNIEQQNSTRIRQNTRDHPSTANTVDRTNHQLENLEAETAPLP", "format": "cell-based", "details": "concentrations as high as 3 μM", "protocol": "(§1) In brief, 1.2×10^6 U87 cells were plated in 10 cm-culture dishes and 48 hours later co-transfected with pNBe vectors encoding GPCRs C-terminally tagged to SmBiT and human β-arrestin-1 or -2 or mini G proteins (mG, engineered GTPase domains of Gα subunits,) N-terminally fused to LgBiT. 48 hours post-transfection cells were harvested, incubated 25 minutes at 37° C. with Nano-Glo Live Cell substrate diluted 200-fold and distributed into white 96-well plates (5×10^4 cells per well). Ligand-induced, β-arrestin and mG recruitment to GPCRs was evaluated with a Mithras LB940 luminometer (Berthold Technologies) for 20 minutes. For concentration-response curves, the signal recorded with a saturating concentration of full agonist for each receptor was set as 100%."}, "ACKR3 [1]": {"target": "T2, ACKR3 (Homo sapiens, UniProt P25106)", "T2 sequence (P25106 whole entry)": "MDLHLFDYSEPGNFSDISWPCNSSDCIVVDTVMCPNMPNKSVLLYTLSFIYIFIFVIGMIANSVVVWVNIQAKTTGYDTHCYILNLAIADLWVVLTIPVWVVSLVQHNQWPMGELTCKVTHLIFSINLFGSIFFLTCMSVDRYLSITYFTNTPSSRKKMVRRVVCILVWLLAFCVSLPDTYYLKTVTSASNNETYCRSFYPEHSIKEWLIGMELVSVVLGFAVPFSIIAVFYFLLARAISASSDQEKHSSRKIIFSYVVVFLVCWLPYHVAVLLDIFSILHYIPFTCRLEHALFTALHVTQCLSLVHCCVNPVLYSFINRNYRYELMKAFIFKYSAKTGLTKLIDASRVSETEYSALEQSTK", "assay": "Binding competition with Alexa Fluor 647-labelled CXCL12 on U87-ACKR3 cells, flow cytometry", "set-up": "expressed in transfected cells; for the receptor comparison in the uptake assay, transient pcDNA3.1)", "details": "5 nM CXCL12-AF647, U87-ACKR3 cells", "protocol": "1.3. Binding Competition Assays\nU87-ACKR3 cells were distributed into 96-well plates (1.5×10^5 cells per well) and incubated with a mixture of 5 nM CXCL12-AF647 and unlabelled chemokines or opioid peptides at indicated concentrations for 90 minutes on ice, then washed twice with FACS buffer (PBS, 1% BSA, 0.1% NaN3) at 4° C. Dead cells were excluded using Zombie Green viability dye (BioLegend). ACKR3-negative U87 cells were used to evaluate non-specific binding of CXCL12-AF647. […] The signal obtained for CXCL12-AF647 in the absence of unlabelled chemokines was used to define 100% binding. Ligand binding was quantified by mean fluorescence intensity on a BD FACS Fortessa cytometer (BD Biosciences)."}, "NOP": {"target": "T3, NOP (Homo sapiens, UniProt P41146)", "T3 construct": "expressed in transfected cells; host or cells: U87 cells, transient co-transfection of pNBe vectors", "T3 sequence (P41146 whole entry)": "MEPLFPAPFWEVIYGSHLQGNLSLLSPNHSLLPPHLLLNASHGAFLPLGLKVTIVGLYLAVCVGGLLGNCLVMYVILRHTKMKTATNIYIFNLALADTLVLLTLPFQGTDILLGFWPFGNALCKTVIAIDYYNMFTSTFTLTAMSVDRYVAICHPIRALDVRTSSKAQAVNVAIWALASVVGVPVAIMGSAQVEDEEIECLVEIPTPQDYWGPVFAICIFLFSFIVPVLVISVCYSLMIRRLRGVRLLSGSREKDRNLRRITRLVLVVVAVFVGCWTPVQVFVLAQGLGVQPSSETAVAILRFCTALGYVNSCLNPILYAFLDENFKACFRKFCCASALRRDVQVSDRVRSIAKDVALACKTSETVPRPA", "assay": "β-arrestin-1 recruitment to NOP (NanoBiT, U87 cells)", "format": "cell-based", "details": "concentrations as high as 3 μM", "protocol": "as §1"}, "mouse ACKR3 (mACKR3)": {"target": "T4, mouse ACKR3 (mACKR3) (Mus musculus, UniProt P56485)", "T4 construct": "expressed in transfected cells; host or cells: U87 cells", "T4 sequence (P56485 whole entry)": "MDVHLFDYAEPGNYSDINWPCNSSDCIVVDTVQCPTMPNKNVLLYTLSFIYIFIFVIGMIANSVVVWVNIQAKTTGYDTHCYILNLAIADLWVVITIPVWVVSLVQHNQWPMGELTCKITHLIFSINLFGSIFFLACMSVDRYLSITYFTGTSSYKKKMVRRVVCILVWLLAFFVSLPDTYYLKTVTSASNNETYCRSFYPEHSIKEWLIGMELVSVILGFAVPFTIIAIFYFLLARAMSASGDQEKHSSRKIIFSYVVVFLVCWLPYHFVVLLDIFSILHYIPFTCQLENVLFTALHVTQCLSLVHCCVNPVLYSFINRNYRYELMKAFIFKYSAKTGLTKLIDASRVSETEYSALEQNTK", "T4 sequence (P49407 whole entry partner)": "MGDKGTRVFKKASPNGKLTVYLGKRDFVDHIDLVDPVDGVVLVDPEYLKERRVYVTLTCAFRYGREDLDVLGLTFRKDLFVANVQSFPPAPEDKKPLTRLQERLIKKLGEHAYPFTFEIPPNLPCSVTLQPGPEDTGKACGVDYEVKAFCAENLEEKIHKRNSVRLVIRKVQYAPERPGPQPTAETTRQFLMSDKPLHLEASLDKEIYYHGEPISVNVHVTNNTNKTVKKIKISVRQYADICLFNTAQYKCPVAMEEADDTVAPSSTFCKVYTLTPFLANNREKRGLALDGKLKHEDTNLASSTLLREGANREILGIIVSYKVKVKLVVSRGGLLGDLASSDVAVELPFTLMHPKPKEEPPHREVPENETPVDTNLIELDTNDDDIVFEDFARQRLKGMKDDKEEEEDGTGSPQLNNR", "assay": "β-arrestin-1 recruitment to mouse ACKR3", "format": "cell-based", "protocol": "as §1"}, "ACKR3 [2]": {"target": "T2, ACKR3", "assay": "Uptake of fluorescently labelled opioid peptides by ACKR3-expressing U87 cells, imaging flow cytometry", "format": "cell-based", "set-up": "expressed in transfected cells; for the receptor comparison in the uptake assay, transient pcDNA3.1)", "details": "saturating concentration of LIH383 (3 μM)", "description": "Visualization of Fluorescently Labelled Opioid Peptides Uptake by Imagestream\n48 hours post transfection, cells were harvested and treated as described above. Dead cells were excluded using Zombie NIR or Zombie Green viability dye (BioLegend) for FAM-labelled peptides and Cy5-labelled peptides, respectively. Images of 1×10^4 in-focus, living single cells were acquired with an ImageStream MKII imaging flow cytometer (Amnis) using 40× magnification (60× magnification for smNPCs). Samples were analysed using Ideas6.2 software. The number of spots per cell was determined using a mask-based software wizard."}, "ACKR3 [3]": {"target": "T2, ACKR3", "assay": "ACKR3-mediated depletion of extracellular dynorphin A monitored by its ability to activate KOR (U87-ACKR3 cells)", "format": "cell-based", "set-up": "expressed in transfected cells; for the receptor comparison in the uptake assay, transient pcDNA3.1)", "details": "pre-treatment of ACKR3-expressing cells, saturating concentration", "protocol": "as §1"}, "KOR": {"target": "KOR (Homo sapiens, UniProt P41145)", "sequence (P41145 whole entry)": "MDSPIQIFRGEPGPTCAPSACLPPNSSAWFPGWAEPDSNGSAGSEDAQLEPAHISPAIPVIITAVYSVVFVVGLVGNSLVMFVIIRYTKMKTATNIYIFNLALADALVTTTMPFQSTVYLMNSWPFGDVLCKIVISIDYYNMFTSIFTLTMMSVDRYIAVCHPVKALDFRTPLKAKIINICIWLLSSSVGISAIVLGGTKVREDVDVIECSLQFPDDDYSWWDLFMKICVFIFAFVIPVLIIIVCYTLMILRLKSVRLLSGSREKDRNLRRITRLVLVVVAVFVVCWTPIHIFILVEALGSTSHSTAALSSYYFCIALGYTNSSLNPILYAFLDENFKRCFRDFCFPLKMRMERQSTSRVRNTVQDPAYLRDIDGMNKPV", "assay": "β-arrestin-1 recruitment to KOR (NanoBiT, U87 cells)", "format": "cell-based", "set-up": "expressed in transfected cells; host or cells: U87 cells, transient co-transfection of pNBe vectors", "details": "concentrations as high as 3 μM", "protocol": "as §1"}, "ACKR3 [4]": {"target": "ACKR3", "assay": "Binding competition | ACKR3 | IC50 (nM)", "text": "Table printed on a drawing sheet, FIG. 1 (continued) H\nHead of the field: Binding competition | ACKR3 | IC50 (nM)\nThe patent's description of the figure: FIG. 1 Opioid peptide library screening on ACKR3, hit confirmation and comparison with classical opioid receptors. (A) The ability of 58 compounds, including natural opioid peptides from the four opioid families, variants thereof and small molecule opioid receptor modulators, to induce β-arrestin-2 recruitment to ACKR3, CXCR4 and CXCR3 in U87 cells at a concentration of 5 μM. Positive control chemokines were used at a concentration of 300 nM. Results are expressed as fold change over vehicle-treated cells and presented as mean±S.D of two replicates (B-F) Comparison of potency and efficacy of ACKR3-activating peptides in inducing β-arrestin-1 recruitment to the opioid receptors MOR (B), DOR (C), KOR (D), NOP (E) and ACKR3 (F) in U87 cells. Results are expressed as percentage of indicated agonist response. […] Results from B—H are presented as mean±S.E.M (n ? 3).\nWhere the first naming reader finds the target: head: Binding competition | ACKR3 | IC50 (nM)"}}}
{"smiles": "CSCC[C@H](NC(=O)[C@H](Cc1ccccc1)NC(=O)CNC(=O)CNC(=O)[C@@H](N)Cc1ccccc1)C(=O)N[C@@H](CCCNC(=N)N)C(=O)N[C@@H](CCCNC(=N)N)C(=O)N[C@@H](CCCCN)C(N)=O", "note": "[LIH383]", "values": [{"measurement": "activation or inhibition of MOR", "setting": "MOR", "result": "no activation or inhibition"}, {"measurement": "competition with CXCL12-AF647 for ACKR3 binding", "setting": "ACKR3 [1]", "result": "low nanomolar concentrations"}, {"measurement": "activation or inhibition of NOP", "setting": "NOP", "result": "no activation or inhibition"}, {"measurement": "agonist activity on mouse ACKR3 compared with human ACKR3", "setting": "mouse ACKR3 (mACKR3)", "result": "equivalent activity on human and mouse ACKR3"}, {"measurement": "dynorphin A-FAM uptake by U87-ACKR3 cells compared to U87-ACKR3 cells pre-incubated with LIH383", "setting": "ACKR3 [2]", "result": "notably higher number of distinguishable vesicle-like structures and mean fluorescent intensity"}, {"measurement": "reversal of the ACKR3-mediated impairment of dynorphin A potency to activate KOR by pre-treatment", "setting": "ACKR3 [3]", "result": "reversed"}, {"measurement": "activation or inhibition of KOR", "setting": "KOR", "result": "no activation or inhibition"}, {"measurement": "IC50", "setting": "ACKR3 [4]", "result": 4, "unit": "nM"}]}
